# Measured values as given in ChEMBL document CHEMBL1136903, “Spiroimidazolidinone NPC1L1 inhibitors. 1: Discovery by 3D-similarity-based virtual screening” (Bioorg Med Chem Lett, 2009).
# pIC50: −log10 of the molar value. Activity calls are given as the source filed them. The calls are words filed in the database; no cut-off is given here.
# Tests used:
# Mus musculus [1] = test: Inhibition of plasma [3H]cholesterol absorption in C57BL/6 mouse at 0.2 ml in 0.25% methocel suspension, po dosed 30 mins before [3H]cholesterol administration measured after 1.5 to 5 hrs; format: functional, organism-based
# [2] = biological target: T1, NPC1-like intracellular cholesterol transporter 1 (Homo sapiens, UniProt Q9UHC9); test: Displacement of [35S](2S,3S,4S,5R,6S)-6-(4-((2S,3R)-3-((S)-3-(4-fluorophenyl)-3-hydroxypropyl)-1-(4-(3-(methylsulfonamido)prop-1-ynyl)phenyl)-4-oxoazetidin-2-yl)phenoxy)-3,4,5-trihydroxytetrahydro-2H-pyran-2-carboxylic acid from NPC1L1 in human enterocyte brush border membrane
# T1 sequence (Q9UHC9 whole entry): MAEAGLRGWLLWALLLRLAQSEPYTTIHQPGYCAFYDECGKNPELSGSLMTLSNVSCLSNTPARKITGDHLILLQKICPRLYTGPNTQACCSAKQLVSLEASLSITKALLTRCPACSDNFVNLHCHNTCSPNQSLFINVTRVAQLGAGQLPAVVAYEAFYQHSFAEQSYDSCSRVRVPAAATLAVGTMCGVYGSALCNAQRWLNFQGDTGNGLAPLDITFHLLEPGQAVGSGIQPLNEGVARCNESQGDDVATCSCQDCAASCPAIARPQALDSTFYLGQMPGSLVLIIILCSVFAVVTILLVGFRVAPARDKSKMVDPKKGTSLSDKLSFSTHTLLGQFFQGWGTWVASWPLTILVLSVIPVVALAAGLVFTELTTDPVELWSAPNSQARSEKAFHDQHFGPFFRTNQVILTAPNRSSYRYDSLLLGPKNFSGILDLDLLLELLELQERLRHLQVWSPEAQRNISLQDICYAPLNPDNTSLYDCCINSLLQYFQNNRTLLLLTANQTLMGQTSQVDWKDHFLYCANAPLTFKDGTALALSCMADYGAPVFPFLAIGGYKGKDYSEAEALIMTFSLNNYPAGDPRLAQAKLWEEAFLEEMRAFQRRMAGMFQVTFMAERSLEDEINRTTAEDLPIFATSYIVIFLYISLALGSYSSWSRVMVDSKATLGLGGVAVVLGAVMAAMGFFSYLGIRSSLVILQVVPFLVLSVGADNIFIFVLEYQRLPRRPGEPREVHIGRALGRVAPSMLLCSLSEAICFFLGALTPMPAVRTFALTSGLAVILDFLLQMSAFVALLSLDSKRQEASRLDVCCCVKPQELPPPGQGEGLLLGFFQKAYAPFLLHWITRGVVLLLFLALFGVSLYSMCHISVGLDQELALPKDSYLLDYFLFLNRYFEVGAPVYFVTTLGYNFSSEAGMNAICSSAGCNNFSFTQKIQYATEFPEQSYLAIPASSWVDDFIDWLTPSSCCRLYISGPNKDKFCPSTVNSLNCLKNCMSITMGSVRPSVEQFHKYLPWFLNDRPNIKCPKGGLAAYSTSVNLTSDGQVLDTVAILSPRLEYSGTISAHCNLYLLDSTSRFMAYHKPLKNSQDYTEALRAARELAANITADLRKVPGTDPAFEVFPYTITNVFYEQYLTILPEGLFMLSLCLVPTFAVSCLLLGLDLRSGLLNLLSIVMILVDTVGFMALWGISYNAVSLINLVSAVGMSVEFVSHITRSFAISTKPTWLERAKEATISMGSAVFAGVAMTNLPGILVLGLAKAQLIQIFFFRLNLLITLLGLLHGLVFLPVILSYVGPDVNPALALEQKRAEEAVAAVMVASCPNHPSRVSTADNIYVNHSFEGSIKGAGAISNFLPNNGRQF
# Mus musculus [3] = test: Inhibition of liver [3H]cholesterol absorption in C57BL/6 mouse at 0.2 ml in 0.25% methocel suspension, po dosed 30 mins before [3H]cholesterol administration measured after 1.5 to 5 hrs; format: functional, organism-based
SMILES,inhibition (Mus musculus [1]),pIC50 [2],inhibition (Mus musculus [3])
CC(C)(C)c1ccc(C(=O)N2CCC3(CC2)C(=O)N(CC(=O)N2CCCCC2)CN3c2ccccc2)cc1,inactive,5.00,inactive
CS(=O)(=O)NCC#CN1C(=O)[C@H](CC[C@H](O)c2ccc(F)cc2)[C@H]1c1ccc(O[C@@H]2O[C@H](C(=O)O)[C@@H](O)[C@H](O)[C@H]2O)cc1,,7.70,
O=C([C@@H]1C[C@@H](c2ccccc2)CN1C(=O)c1ccccc1)N1CCC2(C=Cc3ccccc32)CC1,,5.28,
O=C(O)[C@H]1O[C@@H](Oc2ccc([C@@H]3[C@@H](CC[C@H](O)c4ccc(F)cc4)C(=O)N3c3ccc(F)cc3)cc2)[C@H](O)[C@@H](O)[C@@H]1O,,6.52,
